Values after ≈ are worked out from the molar mass of the structure shown. Where a name gives a salt, the structure may show the parent alone. Blank lines part the entries; values can stand above or below the compound they belong to.
Legend:
[1] = tested on: S. aureus AS 5155 methicillin resistant; assay: MIC by dilutions in agar medium (NCCLS); assay type: cell-based; settings: Staphylococcus aureus; Gram-positive, at 24 hours, agar dilution
Text: (§1) a) Activity in vitro The method of dilutions in agar medium in agreement with the NCCLS recommendations is used for the determination of the minimum inhibitory concentrations (MIC) expressed in μg/ml.

[2] = tested on: S. aureus IP8203 sensitive; assay: MIC by dilutions in agar medium (NCCLS); assay type: cell-based; settings: Staphylococcus aureus; Gram-positive, at 24 hours, agar dilution
Text: as §1

[3] = tested on: M. catarrhalis IPA151 sensitive; assay: MIC by dilutions in agar medium (NCCLS); assay type: cell-based; settings: Moraxella catarrhalis, IPA151SENSITIVE; Gram-negative, at 48 hours, agar dilution
Text: as §1

[4] = tested on: S. pneumoniae 6254-01 MLSB resistant; assay: MIC by dilutions in agar medium (NCCLS); assay type: cell-based; settings: Streptococcus pneumoniae; Gram-positive, at 24 hours, agar dilution
Text: as §1

E. faecalis ATCC29212 = assay: MIC by dilutions in agar medium (NCCLS); assay type: cell-based; settings: Enterococcus faecalis, Gram-positive, at 24 hours, agar dilution
Text: as §1

melting point: 77 °C
Compound: COc1ccc2ncc(Cl)c(CCCC3(C(=O)O)CCN(C/C=C/c4cc(F)ccc4F)C3)c2c1 (racemic) (as salt: sodium) [Example 15, (±)-3-[3-(3-chloro-6-methoxyquinolin-4-yl)propyl]-1-[(2E)-3-(2,5-difluorophenyl)-2-propenyl]-3-pyrrolidinecarboxylic acid]

MIC [1]: 0.015 to 4 µg/mL (≈ 0.031 to 8.26 µM) | MIC [2]: 0.015 to 4 µg/mL (≈ 0.031 to 8.26 µM) | MIC [3]: 0.12 to 2 µg/mL (≈ 0.248 to 4.13 µM) | MIC [4]: 0.015 to 4 µg/mL (≈ 0.031 to 8.26 µM) | MIC (E. faecalis ATCC29212): 0.25 to 32 µg/mL (≈ 0.516 to 66 µM) | melting point: 77 °C
Compound: COc1ccc2ncc(F)c(CCCC3(C(=O)O)CCN(C/C=C/c4cc(F)ccc4F)C3)c2c1 (racemic) [Example 1, (±)-1-[(2E)-3-(2,5-difluorophenyl)-2-propenyl]-3-[3-(3-fluoro-6-methoxyquinolin-4-yl)propyl]-3-pyrrolidinecarboxylic acid]

MIC [1]: 0.015 to 4 µg/mL (≈ 0.0301 to 8.02 µM) | MIC [2]: 0.015 to 4 µg/mL (≈ 0.0301 to 8.02 µM) | MIC [3]: 0.12 to 2 µg/mL (≈ 0.241 to 4.01 µM) | MIC [4]: 0.015 to 4 µg/mL (≈ 0.0301 to 8.02 µM) | MIC (E. faecalis ATCC29212): 0.25 to 32 µg/mL (≈ 0.501 to 64.2 µM)
Compound: COC(=O)C1(CCCc2c(F)cnc3ccc(OC)cc23)CCN(C/C=C/c2cc(F)ccc2F)C1 (racemic) [Example 2, Methyl (±)-1-[(2E)-3-(2,5-difluorophenyl)-2-propenyl]-3-[3-(3-fluoro-6-methoxyquinolin-4-yl)propyl]-3-pyrrolidinecarboxylate]

melting point: 96 °C
Compound: COc1ccc2ncc(F)c(CCCC3(C(=O)O)CCN(C/C=C/c4c(F)cccc4F)C3)c2c1 (single isomer, unassigned) (as salt: hydrochloride) [Example 41, 3-[3-(3-fluoro-6-methoxyquinolin-4-yl)propyl]-1-[(2E)-3-(2,6-difluorophenyl)-2-propenyl]-3-pyrrolidinecarboxylic acid]

MIC [1]: 0.015 to 4 µg/mL (≈ 0.031 to 8.26 µM) | MIC [2]: 0.015 to 4 µg/mL (≈ 0.031 to 8.26 µM) | MIC [3]: 0.12 to 2 µg/mL (≈ 0.248 to 4.13 µM) | MIC [4]: 0.015 to 4 µg/mL (≈ 0.031 to 8.26 µM) | MIC (E. faecalis ATCC29212): 0.25 to 32 µg/mL (≈ 0.516 to 66 µM) | melting point: 76 to 80 °C
Compound: COc1ccc2ncc(F)c(CCCC3(C(=O)O)CCN(C/C=C/c4cc(F)ccc4F)C3)c2c1 (single isomer, unassigned) [Example 3, 1-[(2E)-3-(2,5-difluorophenyl)-2-propenyl]-3-[3-(3-fluoro-6-methoxyquinolin-4-yl)propyl]-3-pyrrolidinecarboxylic acid]

melting point: 80 to 84 °C
Compound: COc1ccc2ncc(F)c(CCCC3(C(=O)O)CCN(C/C=C/c4cc(F)ccc4F)C3)c2c1 (single isomer, unassigned) [Example 4, 1-[(2E)-3-(2,5-difluorophenyl)-2-propenyl]-3-[3-(3-fluoro-6-methoxyquinolin-4-yl)propyl]-3-pyrrolidinecarboxylic acid]

melting point: 160 °C
Compound: COc1ccc2ncc(F)c(CCCC3(C(=O)O)CCN(CCSc4cccs4)C3)c2c1 (single isomer, unassigned) [Example 17, 3-[3-(3-fluoro-6-methoxyquinolin-4-yl)propyl]-1-[2-(2-thienylthio)ethyl]-3-pyrrolidinecarboxylic acid]

melting point: 172 °C
Compound: COc1ccc2ncc(F)c(CCCC3(C(=O)O)CCN(CCSc4cccs4)C3)c2c1 (single isomer, unassigned) [Example 18, 3-[3-(3-fluoro-6-methoxyquinolin-4-yl)propyl]-1-[2-(2-thienylthio)ethyl]-3-pyrrolidinecarboxylic acid]

melting point: 157 °C
Compound: COc1ccc2ncc(F)c(CCCC3(C(=O)O)CCN(CCOc4cc(F)ccc4F)C3)c2c1 (single isomer, unassigned) [Example 30, 1-[2-(2,5-difluorophenoxy)ethyl]-3-[3-(3-fluoro-6-methoxyquinolin-4-yl)propyl]-3-pyrrolidinecarboxylic acid]

melting point: 102 °C
Compound: COc1ccc2ncc(F)c(CCCC3(C(=O)O)CCN(C/C=C/c4cc(Cl)ccc4Cl)C3)c2c1 (single isomer, unassigned) [Example 36, 1-[(2E)-3-(2,5-dichlorophenyl)-2-propenyl]-3-[3-(3-fluoro-6-methoxyquinolin-4-yl)propyl]-3-pyrrolidinecarboxylic acid]

melting point: 110 °C
Compound: COc1ccc2ncc(F)c(CCCC3(C(=O)O)CCN(C/C=C/c4cc(F)c(F)c(F)c4)C3)c2c1 (single isomer, unassigned) [Example 49, 3-[3-(3-fluoro-6-methoxyquinolin-4-yl)propyl]-1-[(2E)-3-(3,4,5-trifluorophenyl)-2-propenyl]-3-pyrrolidinecarboxylic acid]

melting point: 148 °C
Compound: COc1ccc2ncc(F)c(CCCC3(C(=O)O)CCN(C/C=C/c4cc(F)c(F)c(F)c4)C3)c2c1 (single isomer, unassigned) [Example 50, 3-[3-(3-fluoro-6-methoxyquinolin-4-yl)propyl]-1-[(2E)-3-(3,4,5-trifluorophenyl)-2-propenyl]-3-pyrrolidinecarboxylic acid]

melting point: 106 °C
Compound: COc1ccc2ncc(F)c(CCCC3(C(=O)O)CCN(CCSc4c(F)cccc4F)C3)c2c1 (single isomer, unassigned) [Example 57, 1-[2-[(2,6-difluorophenyl)thio]ethyl]-3-[3-(3-fluoro-6-methoxyquinolin-4-yl)propyl]-3-pyrrolidinecarboxylic acid]

melting point: 211 °C
Compound: COc1ccc2ncc(F)c(CCCC3(C(=O)O)CN(C/C=C/c4cc(F)ccc4F)C3)c2c1 [Example 11, 1-[(2E)-3-(2,5-difluorophenyl)-2-propenyl]-3-[3-(3-fluoro-6-methoxyquinolin-4-yl)propyl]-3-azetidinecarboxylic acid]

From patent publication US7232833B2, “4-substituted quinoline derivatives, method and intermediates for their preparation and pharmaceutical compositions containing them” (Novexel, priority 2003, dated 2007)
